Data as given in patent publication US9226503B2, “Composition and method for attraction of emerald ash borer Agrilus planipennis fairmaire (coleoptera: buprestidae)” (Her Majesty the Queen in Right of Canada, as represented by …, priority 2011, dated 2016).

Experiments:
[1] = system: A. planipennis; assay: Two-choice Y-tube olfactometer assay; assay type: in vivo, Agrilus planipennis; conditions: males; lactone 10 μg, (3Z)-hexenol 5 μg; chi-square test
Method: A Y-tube olfactometer (Analytical Research Systems Inc, Gainsville, Fla.) was used to test for attraction of A. planipennis to lactone isomers and host volatiles. […] Each arm was connected to a cylinder that contained the stimulus. Charcoal filtered air was passed into each arm at a flow rate of 1.2 L/min. Treatments included the pheromone alone: (3Z)-lactone (10 μg); (3E)-lactone (10 μg); and 60:40 (3E):(3Z)-lactone (10 μg). Next, we tested bark sesquiterpenes and a green leaf volatile alone: Phoebe oil (25 μg and 2.5 μg) and (3Z)-hexenol (5 μg). We then tested the pheromone combined with bark sesquiterpenes: (3Z)-lactone (10 μg)+Phoebe oil (at both 25 μg and 2.5 μg); (3E)-lactone (10 μg)+Phoebe oil (at both 25 μg and 2.5 μg). Finally, we tested the pheromone combined with the green leaf volatile: (3Z)-lactone (10 μg)+(3Z)-hexenol (5 μg); and (3E)-lactone (10 μg)+(3Z)-hexenol (5 μg). Each stimulus (l μl for single compound treatments and a total of 2 μl for two-compound treatments) was diluted in hexane, placed on a strip of filter paper and given one minute for the solvent to evaporate before being placed in the olfactometer. A second filter paper, treated with the equivalent volume of solvent was placed in the other arm of the olfactometer to serve as the control. The apparatus was rinsed with acetone after each treatment, and the arm attached to the test stimulus was randomized between replicates.
For each treatment, we tested increasing numbers of adults until we obtained a minimum of 12 beetles responding to the stimuli (either positively or negatively). To obtain this minimum, we tested 15-54 beetles per treatment. For each trial, a single A. planipennis (mature virgin male or female, >10 days old) was given ten minutes to choose between the two stimuli; adults were used only once in the bioassay. […] A chi-square test was conducted for each independent trial.

[2] = system: A. planipennis; assay: Field trapping experiment 1 (2008), purple prism traps, Ontario; assay type: in vivo, Agrilus planipennis
Method: Field trapping. Three trapping experiments were carried out in green ash plantations (F. pennsylvanica Marsch) with low-to-moderate A. planipennis populations about 40 km southeast of Sarnia, Ontario (42° 58′ 0 N, 82° 24′ 0 W) in 2008, 2009 and 2010. Trees at these sites were generally healthy in appearance with low or no signs of decline, and only a small number of trees had obvious signs/symptoms of infestation by A. planipennis. In Ontario sites, trees were 20-25 years old, 4-6 m tall, 10-15 cm in diameter, and spaced about 2 m apart within a row and 2.5 m between rows. In 2010, the trapping experiment was replicated at four sites in Michigan, USA, in addition to the sites in Ontario. […] Traps were checked every 2 weeks and A. planipennis were collected, counted and sexed.
Experiment 1, conducted in Ontario in 2008, was designed to test for attractiveness of (3Z)-lactone (Bartelt et al. 2007), alone and in combination with two types of host volatiles: bark sesquiterpenes (Crook et al. 2008) and a binary blend of green leaf volatiles ((3Z)-hexenol and (2E)-hexenol) (Poland et al. 2005, de Groot et al. 2008). […] We selected Phoebe oil because it contained two additional sesquiterpenes that had been detected in ash trees and appeared to be more attractive than Manuka oil (Crook et al. 2008) and the (3Z)-hexenol and (2E)-hexenol combination based on results from de Groot et al. (2008). […]

Row | SMILES | attraction of males in Y-tube olfactometer vs hexane control [1] | trap captures compared to unbaited controls [2]
1 | O=C1C/C=C\CCCCCCCCO1 [(3Z)-lactone, (3Z)-dodecen-12-olide] | not | not significantly attractive
2 | O=C1C/C=C/CCCCCCCCO1 [(3E)-lactone, (3E)-dodecen-12-olide] | significantly attracted | –
